Earlier results as cited in patent US8470371B2, “Polymeric micellar clusters and their uses in formulating drugs” (priority 2006, dated 2013).

Assays:
[1] = drug: propofol; literature
[2] = comparator amphiphiles

## 2-hydroxypropyl-β-cyclodextrin
[1]
  Drug Concentration: 38700 µg/mL
  Moles drug encapsulated per mole of polymer: 0.75 [10]

## C[C@]12C=CC(=O)C=C1CC[C@@H]1[C@@H]2[C@@H](O)C[C@@]2(C)[C@H]1CC[C@]2(O)C(=O)CO [Prednisolone]
other
  Log P: 1.4

## CC(C)c1cccc(C(C)C)c1O [Propofol]
other
  Log P: 4.1

## polysorbate 20
[2]
  CMC: 53 µM
  HLB: 16.7
